The conditions of data set [1]: 298.15 K; 101.33 kPa; Liquid; Vibrating tube method.
Data set [2] in a line: refractive index (Na D-line) (dimensionless). The settings on record: 298.15 K; 101.33 kPa; Liquid; Standard Abbe refractometry.

Molecules are shown by their SMILES. Numbers after ± are expanded uncertainties.

Consider `CCO` [ethanol], for which, in data set [1], the mass density turned out to be 786.47 ± 2 kg/m3. The refractive index in data set [2] is on record as 1.3594 ± 0.0008.

Take `O` [water]: the refractive index in data set [2] is recorded as 1.3325 ± 0.0008.

With `CCCCn1cc[n+](C)c1.F[P-](F)(F)(F)(F)F` [1-butyl-3-methylimidazolium hexafluorophosphate], the mass density in data set [1] is 1367.4 ± 2.1 kg/m3. In addition, in data set [2], the refractive index stood at 1.4095 ± 0.0008.

For orientation: mass density means the mass of a sample divided by its volume. As a reminder, the refractive index is a measure of how strongly the sample bends light.

Source of the values: the NIST ThermoML archive (doi:10.1021/acs.jced.6b00829).
